ChEMBL document CHEMBL5579900, “Enhanced Recognition Memory through Dual Modulation of Brain Carbonic Anhydrases and Cholinesterases” (J Med Chem, 2024)

Experiments:
Acetylcholinesterase = Acetylcholinesterase (Electrophorus electricus, UniProt O42275)
Description: Inhibition of electric eel AChE by microplate reader based analysis

Cholinesterase = Cholinesterase (Equus caballus, UniProt P81908)
Description: Inhibition of equine serum BuChE by microplate reader based analysis

[1] = molecular target: Carbonic anhydrase 1 (Homo sapiens) (UniProt P00915)
Description: Binding affinity to human carbonic anhydrase 1 assessed as activation constant by phenol red dye based stopped-flow method

[2] = molecular target: Carbonic anhydrase 2 (Homo sapiens) (UniProt P00918)
Description: Binding affinity to human carbonic anhydrase 2 assessed as activation constant by phenol red dye based stopped-flow method

[3] = molecular target: Carbonic anhydrase 4 (Homo sapiens) (UniProt P22748)
Sequence of Carbonic anhydrase 4 (Homo sapiens) (P22748 whole entry): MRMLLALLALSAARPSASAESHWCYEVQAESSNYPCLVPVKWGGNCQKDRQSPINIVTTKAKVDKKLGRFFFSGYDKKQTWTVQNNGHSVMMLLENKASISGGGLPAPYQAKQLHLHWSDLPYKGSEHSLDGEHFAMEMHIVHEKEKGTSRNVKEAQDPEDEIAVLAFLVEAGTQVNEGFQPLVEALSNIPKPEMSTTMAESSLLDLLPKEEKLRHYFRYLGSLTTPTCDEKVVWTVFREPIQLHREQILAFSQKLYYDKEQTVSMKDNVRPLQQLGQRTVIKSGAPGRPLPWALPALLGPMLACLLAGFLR
Description: Binding affinity to human carbonic anhydrase 4 assessed as activation constant by phenol red dye based stopped-flow method

[4] = molecular target: Carbonic anhydrase 5B, mitochondrial (Homo sapiens) (UniProt Q9Y2D0)
Sequence of Carbonic anhydrase 5B, mitochondrial (Homo sapiens) (Q9Y2D0 whole entry): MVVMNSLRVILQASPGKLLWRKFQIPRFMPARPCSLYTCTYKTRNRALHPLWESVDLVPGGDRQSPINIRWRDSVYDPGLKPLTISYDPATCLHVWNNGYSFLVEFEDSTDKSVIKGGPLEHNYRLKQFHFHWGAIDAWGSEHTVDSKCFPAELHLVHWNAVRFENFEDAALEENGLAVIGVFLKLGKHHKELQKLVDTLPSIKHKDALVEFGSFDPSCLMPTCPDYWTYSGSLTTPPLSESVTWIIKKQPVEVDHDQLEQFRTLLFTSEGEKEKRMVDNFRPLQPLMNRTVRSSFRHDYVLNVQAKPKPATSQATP
Description: Binding affinity to human carbonic anhydrase 5B assessed as activation constant by phenol red dye based stopped-flow method

[5] = molecular target: Carbonic anhydrase 7 (Homo sapiens) (UniProt P43166)
Sequence of Carbonic anhydrase 7 (Homo sapiens) (P43166 whole entry): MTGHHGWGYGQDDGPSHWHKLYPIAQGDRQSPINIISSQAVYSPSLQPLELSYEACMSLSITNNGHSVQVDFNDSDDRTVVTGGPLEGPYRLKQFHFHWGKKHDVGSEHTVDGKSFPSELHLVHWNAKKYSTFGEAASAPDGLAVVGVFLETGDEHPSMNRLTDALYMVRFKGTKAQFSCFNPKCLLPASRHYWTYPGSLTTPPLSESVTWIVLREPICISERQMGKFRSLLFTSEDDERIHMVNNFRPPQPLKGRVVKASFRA
Description: Binding affinity to human carbonic anhydrase 7 assessed as activation constant by phenol red dye based stopped-flow method

Sequence of Acetylcholinesterase (O42275 whole entry): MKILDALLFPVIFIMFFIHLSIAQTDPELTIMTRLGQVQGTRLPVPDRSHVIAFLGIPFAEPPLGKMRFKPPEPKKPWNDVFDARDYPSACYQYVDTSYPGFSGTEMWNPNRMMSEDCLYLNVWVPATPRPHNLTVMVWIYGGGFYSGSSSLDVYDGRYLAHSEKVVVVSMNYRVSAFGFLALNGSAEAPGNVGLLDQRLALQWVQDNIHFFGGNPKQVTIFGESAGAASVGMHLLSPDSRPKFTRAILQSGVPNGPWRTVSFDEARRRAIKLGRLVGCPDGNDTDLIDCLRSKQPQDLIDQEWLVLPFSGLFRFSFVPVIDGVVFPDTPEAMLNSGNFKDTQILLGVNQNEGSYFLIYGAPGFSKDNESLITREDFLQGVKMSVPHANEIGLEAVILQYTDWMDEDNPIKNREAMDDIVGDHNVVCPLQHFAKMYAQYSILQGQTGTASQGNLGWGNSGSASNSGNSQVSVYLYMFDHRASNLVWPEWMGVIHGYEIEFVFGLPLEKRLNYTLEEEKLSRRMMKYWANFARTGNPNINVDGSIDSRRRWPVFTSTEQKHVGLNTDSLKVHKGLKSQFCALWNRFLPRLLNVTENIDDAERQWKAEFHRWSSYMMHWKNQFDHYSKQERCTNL
Sequence of Cholinesterase (P81908 whole entry): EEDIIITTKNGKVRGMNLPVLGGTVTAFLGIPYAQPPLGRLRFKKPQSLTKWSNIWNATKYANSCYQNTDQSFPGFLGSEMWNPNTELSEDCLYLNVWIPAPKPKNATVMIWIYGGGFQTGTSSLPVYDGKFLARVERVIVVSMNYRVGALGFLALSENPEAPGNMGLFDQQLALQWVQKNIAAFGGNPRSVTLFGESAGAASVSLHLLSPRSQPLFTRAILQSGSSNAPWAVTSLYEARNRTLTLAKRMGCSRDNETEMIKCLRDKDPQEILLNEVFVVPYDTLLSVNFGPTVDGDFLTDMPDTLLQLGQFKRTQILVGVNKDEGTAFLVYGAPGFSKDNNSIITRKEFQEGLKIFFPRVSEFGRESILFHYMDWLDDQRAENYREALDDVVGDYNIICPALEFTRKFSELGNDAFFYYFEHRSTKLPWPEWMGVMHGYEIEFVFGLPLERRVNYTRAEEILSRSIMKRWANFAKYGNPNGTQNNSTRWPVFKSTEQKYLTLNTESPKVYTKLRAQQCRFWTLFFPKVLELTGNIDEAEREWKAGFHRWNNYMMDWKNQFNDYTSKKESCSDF
Sequence of Carbonic anhydrase 1 (Homo sapiens) (P00915 2-261 limits assumed): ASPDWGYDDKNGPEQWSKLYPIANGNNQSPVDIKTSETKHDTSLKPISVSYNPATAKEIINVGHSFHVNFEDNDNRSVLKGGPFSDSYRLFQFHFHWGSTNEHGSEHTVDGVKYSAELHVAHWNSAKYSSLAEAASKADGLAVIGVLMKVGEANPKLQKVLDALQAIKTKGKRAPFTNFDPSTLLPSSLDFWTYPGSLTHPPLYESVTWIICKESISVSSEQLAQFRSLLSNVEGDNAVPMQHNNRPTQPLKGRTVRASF

CC(C)(C)OC(=O)N[C@@H](Cc1cn(C(=O)OC(C)(C)C)cn1)C(=O)NCCCCCNc1c2c(nc3ccccc13)CCCC2
IC50 (Acetylcholinesterase): 141 nM
IC50 (Cholinesterase): 0.57 nM
KA [1]: > 50000 nM
KA ([2]; filed as activator): 11100 nM
KA [3]: > 50 µM
KA ([4]; filed as activator): 9.05 µM
KA [5]: > 50000 nM

CC(C)(C)OC(=O)N[C@@H](Cc1ccccc1)C(=O)NCCCCCCNc1c2c(nc3ccccc13)CCCC2
IC50 (Acetylcholinesterase): 9.9 nM
IC50 (Cholinesterase): 0.091 nM
KA [1]: > 50000 nM
KA [2]: > 50000 nM
KA [3]: > 50 µM
KA [4]: > 50 µM
KA [5]: > 50000 nM

CC(C)(C)OC(=O)N[C@@H](Cc1cn(C(=O)OC(C)(C)C)cn1)C(=O)NCCCNc1c2c(nc3ccccc13)CCCC2
IC50 (Acetylcholinesterase): 157 nM
IC50 (Cholinesterase): 3.6 nM
KA [1]: > 50000 nM
KA ([2]; filed as activator): 15900 nM
KA [3]: > 50 µM
KA [4]: > 50 µM
KA [5]: > 50000 nM

N[C@@H](Cc1c[nH]c2ccccc12)C(=O)NCCCNc1c2c(nc3ccccc13)CCCC2
IC50 (Acetylcholinesterase): 58.9 nM
IC50 (Cholinesterase): 1.6 nM
KA ([1]; filed as activator): 1010 nM
KA ([2]; filed as activator): 833 nM
KA ([3]; filed as activator): 2.33 µM
KA ([4]; filed as activator): 1.96 µM
KA ([5]; filed as activator): 566 nM

CC(C)(C)OC(=O)N[C@@H](CCCCNC(=O)OCc1ccccc1)C(=O)NCCCNc1c2c(nc3ccccc13)CCCC2
IC50 (Acetylcholinesterase): 419 nM
IC50 (Cholinesterase): 0.25 nM
KA [1]: > 50000 nM
KA [2]: > 50000 nM
KA [3]: > 50 µM
KA [4]: > 50 µM
KA [5]: > 50000 nM

c1ccc2c(NCCCCCCNCCc3c[nH]cn3)c3c(nc2c1)CCCC3
IC50 (Acetylcholinesterase): 2.2 nM
IC50 (Cholinesterase): 2 nM
KA ([1]; filed as activator): 236 nM
KA ([2]; filed as activator): 102 nM
KA ([3]; filed as activator): 2.28 µM
KA ([4]; filed as activator): 0.5 µM
KA ([5]; filed as activator): 386 nM

CC(C)(C)OC(=O)N[C@@H](Cc1ccccc1)C(=O)NCCCCCNc1c2c(nc3ccccc13)CCCC2
IC50 (Acetylcholinesterase): 243 nM
IC50 (Cholinesterase): 0.34 nM
KA [1]: > 50000 nM
KA [2]: > 50000 nM
KA [3]: > 50 µM
KA [4]: > 50 µM
KA [5]: > 50000 nM

N[C@@H](CCCCNC(=O)OCc1ccccc1)C(=O)NCCCCCNc1c2c(nc3ccccc13)CCCC2
IC50 (Acetylcholinesterase): 238 nM
IC50 (Cholinesterase): 0.33 nM
KA ([1]; filed as activator): 3530 nM
KA ([2]; filed as activator): 981 nM
KA ([3]; filed as activator): 3.61 µM
KA ([4]; filed as activator): 4.97 µM
KA ([5]; filed as activator): 2730 nM

COC(=O)[C@H](Cc1ccc(OCCCCCCNc2c3c(nc4ccccc24)CCCC3)cc1)NC(=O)OC(C)(C)C
IC50 (Acetylcholinesterase): 16 nM
IC50 (Cholinesterase): 0.11 nM
KA [1]: > 50000 nM
KA [2]: > 50000 nM
KA [3]: > 50 µM
KA [4]: > 50 µM
KA [5]: > 50000 nM

COC(=O)[C@H](Cc1ccccc1)NCCCCCCNc1c2c(nc3ccccc13)CCCC2
IC50 (Acetylcholinesterase): 21.8 nM
IC50 (Cholinesterase): 0.21 nM
KA ([1]; filed as activator): 992 nM
KA ([2]; filed as activator): 312 nM
KA ([3]; filed as activator): 1.45 µM
KA ([4]; filed as activator): 5.17 µM
KA ([5]; filed as activator): 397 nM

COC(=O)[C@@H](N)Cc1ccc(OCCCCCCNc2c3c(nc4ccccc24)CCCC3)cc1
IC50 (Acetylcholinesterase): 26.4 nM
IC50 (Cholinesterase): 2.7 nM
KA ([1]; filed as activator): 702 nM
KA ([2]; filed as activator): 295 nM
KA ([3]; filed as activator): 8.25 µM
KA ([4]; filed as activator): 6.16 µM
KA ([5]; filed as activator): 185 nM

N[C@@H](Cc1ccccc1)C(=O)NCCCNc1c2c(nc3ccccc13)CCCC2
IC50 (Acetylcholinesterase): 239 nM
IC50 (Cholinesterase): 0.22 nM
KA ([1]; filed as activator): 893 nM
KA ([2]; filed as activator): 726 nM
KA ([3]; filed as activator): 5.85 µM
KA ([4]; filed as activator): 0.971 µM
KA ([5]; filed as activator): 491 nM

c1ccc2c(NCCCCCNCCc3c[nH]cn3)c3c(nc2c1)CCCC3
IC50 (Acetylcholinesterase): 60.2 nM
IC50 (Cholinesterase): 2.4 nM
KA ([1]; filed as activator): 439 nM
KA ([2]; filed as activator): 290 nM
KA ([3]; filed as activator): 1.28 µM
KA ([4]; filed as activator): 0.541 µM
KA ([5]; filed as activator): 439 nM

COC(=O)[C@H](Cc1ccc(OCCCCCNc2c3c(nc4ccccc24)CCCC3)cc1)NC(=O)OC(C)(C)C
IC50 (Acetylcholinesterase): 65.4 nM
IC50 (Cholinesterase): > 15.3 nM
KA [1]: > 50000 nM
KA [2]: > 50000 nM
KA [3]: > 50 µM
KA [4]: > 50 µM
KA [5]: > 50000 nM

COC(=O)[C@H](Cc1ccccc1)NCCCCCNc1c2c(nc3ccccc13)CCCC2
IC50 (Acetylcholinesterase): 110 nM
IC50 (Cholinesterase): 3.8 nM
KA ([1]; filed as activator): 731 nM
KA ([2]; filed as activator): 247 nM
KA ([3]; filed as activator): 3.45 µM
KA ([4]; filed as activator): 5.32 µM
KA ([5]; filed as activator): 535 nM

N[C@@H](Cc1c[nH]c2ccccc12)C(=O)NCCCCNc1c2c(nc3ccccc13)CCCC2
IC50 (Acetylcholinesterase): 145 nM
IC50 (Cholinesterase): 2.4 nM
KA ([1]; filed as activator): 542 nM
KA ([2]; filed as activator): 413 nM
KA ([3]; filed as activator): 3.12 µM
KA ([4]; filed as activator): 0.703 µM
KA ([5]; filed as activator): 289 nM

COC(=O)[C@H](Cc1c[nH]c2ccccc12)NCCCCCCNc1c2c(nc3ccccc13)CCCC2
IC50 (Acetylcholinesterase): 23.3 nM
IC50 (Cholinesterase): 2.8 nM
KA ([1]; filed as activator): 436 nM
KA ([2]; filed as activator): 631 nM
KA ([3]; filed as activator): 2.23 µM
KA ([4]; filed as activator): 5.1 µM
KA ([5]; filed as activator): 637 nM

N[C@@H](Cc1c[nH]cn1)C(=O)NCCCCNc1c2c(nc3ccccc13)CCCC2
IC50 (Acetylcholinesterase): 101 nM
IC50 (Cholinesterase): 4.1 nM
KA ([1]; filed as activator): 972 nM
KA ([2]; filed as activator): 199 nM
KA ([3]; filed as activator): 0.958 µM
KA ([4]; filed as activator): 1.47 µM
KA ([5]; filed as activator): 391 nM

COC(=O)[C@H](CCCCNC(=O)OCc1ccccc1)NCCCCCCNc1c2c(nc3ccccc13)CCCC2
IC50 (Acetylcholinesterase): 35.6 nM
IC50 (Cholinesterase): 0.29 nM
KA ([1]; filed as activator): 2280 nM
KA ([2]; filed as activator): 2410 nM
KA ([3]; filed as activator): 20.2 µM
KA ([4]; filed as activator): 4.61 µM
KA ([5]; filed as activator): 2250 nM

N[C@@H](Cc1ccccc1)C(=O)NCCCCCCNc1c2c(nc3ccccc13)CCCC2
IC50 (Acetylcholinesterase): 78 nM
IC50 (Cholinesterase): 2.7 nM
KA ([1]; filed as activator): 481 nM
KA ([2]; filed as activator): 157 nM
KA ([3]; filed as activator): 4.78 µM
KA ([4]; filed as activator): 4.64 µM
KA ([5]; filed as activator): 160 nM

CC(C)(C)OC(=O)N[C@@H](Cc1c[nH]c2ccccc12)C(=O)NCCCNc1c2c(nc3ccccc13)CCCC2
IC50 (Acetylcholinesterase): 426 nM
IC50 (Cholinesterase): 0.5 nM
KA ([1]; filed as activator): 1920 nM
KA ([2]; filed as activator): 5180 nM
KA ([3]; filed as activator): 21.7 µM
KA [4]: > 50 µM
KA ([5]; filed as activator): 1920 nM

CC(C)(C)OC(=O)N[C@@H](Cc1ccccc1)C(=O)NCCCCNc1c2c(nc3ccccc13)CCCC2
IC50 (Acetylcholinesterase): 158 nM
IC50 (Cholinesterase): 0.38 nM
KA [1]: > 50000 nM
KA [2]: > 50000 nM
KA [3]: > 50 µM
KA [4]: > 50 µM
KA [5]: > 50000 nM

CC(C)(C)OC(=O)N[C@@H](Cc1c[nH]c2ccccc12)C(=O)NCCCCNc1c2c(nc3ccccc13)CCCC2
IC50 (Acetylcholinesterase): 82.3 nM
IC50 (Cholinesterase): 0.21 nM
KA ([1]; filed as activator): 2620 nM
KA ([2]; filed as activator): 7650 nM
KA ([3]; filed as activator): 8.58 µM
KA ([4]; filed as activator): 8.64 µM
KA ([5]; filed as activator): 2630 nM

CC(C)(C)OC(=O)N[C@@H](Cc1c[nH]c2ccccc12)C(=O)NCCCCCCNc1c2c(nc3ccccc13)CCCC2
IC50 (Acetylcholinesterase): 15.9 nM
IC50 (Cholinesterase): 0.26 nM
KA ([1]; filed as activator): 1120 nM
KA ([2]; filed as activator): 2660 nM
KA ([3]; filed as activator): 4.46 µM
KA ([4]; filed as activator): 24.2 µM
KA ([5]; filed as activator): 1130 nM

COC(=O)[C@H](Cc1c[nH]cn1)NCCCCCNc1c2c(nc3ccccc13)CCCC2
IC50 (Acetylcholinesterase): 143 nM
IC50 (Cholinesterase): 4.4 nM
KA ([1]; filed as activator): 311 nM
KA ([2]; filed as activator): 175 nM
KA ([3]; filed as activator): 3.65 µM
KA ([4]; filed as activator): 2.43 µM
KA ([5]; filed as activator): 211 nM

CC(C)(C)OC(=O)N[C@@H](Cc1cn(C(=O)OC(C)(C)C)cn1)C(=O)NCCCCCCNc1c2c(nc3ccccc13)CCCC2
IC50 (Acetylcholinesterase): 14.5 nM
IC50 (Cholinesterase): 0.44 nM
KA [1]: > 50000 nM
KA ([2]; filed as activator): 10000 nM
KA [3]: > 50 µM
KA [4]: > 50 µM
KA [5]: > 50000 nM

N[C@@H](Cc1c[nH]cn1)C(=O)NCCCNc1c2c(nc3ccccc13)CCCC2
IC50 (Acetylcholinesterase): 119 nM
IC50 (Cholinesterase): 5.8 nM
KA ([1]; filed as activator): 581 nM
KA ([2]; filed as activator): 376 nM
KA ([3]; filed as activator): 0.619 µM
KA ([4]; filed as activator): 1.86 µM
KA ([5]; filed as activator): 281 nM
